SMILES strings stand for the structures. Structures can show the parent of a compound that is named as a salt.

For series [1], the system named is 5-HT₃ receptor. The series is described as follows: Suppression of 5-HT-induced reflex bradycardia in urethane-anesthetized rats (5-HT₃ receptor antagonism in vivo). Set-up: species or system Male Wistar rats. As to conditions: 5-HT i.v. 2 mins after. How it is done: Male Wistar rats were urethane-anesthetized and fixed. Cannulas were inserted to carotid artery and thigh vein as used for the recording of blood pressure end heart beat, and for the administration of compounds, respectively.
Several amounts of compound of the present invention were administered to the vein or duodenum. 5-HT was administered rapidly to the vein, 2 mins after. The suppression effect of the compounds was confirmed by the measurement of reflex bradycardia generated. (Nature 316, 11 (1985).)

Series [2] is described as follows: Acute toxicity (LD₅₀) in mice. As to conditions: mouse, in vivo. The procedure:
It was confirmed that the toxicity of the compounds of the present invention were very low. Therefore, the compounds of the present invention may be considered to be sufficiently safe and suitable for pharmaceutical use.
For example, the values of acute toxicity (LD₅₀) of 2-(5-methylimidazol-4-ylmethyl)-5-methyl-1,2-dihydro-γ--carbolin-1-one hydrochloride was 290 mg/kg animal body weight by oral administration and 48 mg/kg animal body weight by intravenous administration in mice, respectively.

For orientation: LD50 means the dose expected to kill half of the subjects tested. A higher LD50 goes with a less toxic substance. With `Cc1[nH]cnc1Cn1ccc2c(c1=O)c1ccccc1n2C` [2-(5-methylimidazol-4-ylmethyl)-5-methyl-1,2-dihydro-γ-carbolin-1-one hydrochloride], the ID₅₀ i.d. in series [1] (compound administered to the duodenum) is recorded as 7.7 mg/kg. This compound yielded an ID₅₀ i.v. in series [1] (compound administered to the vein) of 0.3 mg/kg. Besides, the LD50 in series [2] (intravenous administration) is 48 mg/kg; in series [2] (oral administration) it was 290 mg/kg.

(Values after patent EP0392663A1, “Carboline derivative as a 5-HT3 receptor antagonist” (ONO PHARMACEUTICAL CO., LTD., priority 1989, dated 1990).)
